In patent US10766869B2, “Triazoles for the treatment of demyelinating dieases” (Vertex Pharmaceuticals Incorporated, priority 2015, dated 2020) one finds fold induction data, which are given here for 28 compounds.

The structures appear in SMILES notation. Read-outs that look alike come from different tables or passages of the source.

For the assay, the system named is primary rat mixed cortical cells. Put plainly: In vitro myelination assay (MBP positive myelin strands, fold myelin pixels above background). It counts as cell-based. The settings on record: Rattus norvegicus; for fold induction at 1 µM: 1.0 μM compound; for fold induction at 10 µM: 10.0 μM compound. Put shortly: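 Myelination read as total MBP-immunopositive strand pixels per well, imaged at 10× after fixation on day 14 and expressed relative to untreated wells, at 1.0 and 10.0 μM. Cells: dissociated postnatal day 1 rat cortex, cultured two weeks with compound, re-dosed at days 6 and 10.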

Setting [1] is: relative to baseline of no added compound, read-out: Fold myelin pixels above background.
Where [2] appears, read: relative to baseline of no added compound, read-out: Fold myelin pixels above background, 1.0 μM.
[3] abbreviates: relative to baseline of no added compound, read-out: Fold myelin pixels above background, 10.0 μM.
Setting [4] is: read-out: Fold myelin pixels above background relative to baseline of no added compound.

As for `Cc1cc(Nc2ncn(-c3cc(F)cc(F)c3)n2)cc(N2CC(N3CCS(=O)(=O)CC3)C2)c1` [Compound 661, 1-(3,5-difluorophenyl)-N-[3-[3-(1,1-dioxo-1,4-thiazinan-4-yl)azetidin-1-yl]-5-methyl-phenyl]-1,2,4-triazol-3-amine], under setting [1], the fold induction at 1 µM fell in the range of 10 to 100 and the fold induction at 10 µM is 1 to 10.

For `COc1cc(OC)cc(-n2cnc(Nc3cc(C4CC4)nc(N4CC[C@@H](F)C4)c3)n2)c1` [Compound 245, 2-cyclopropyl-N-[1-(3,5-dimethoxyphenyl)-1,2,4-triazol-3-yl]-6-[(3R)-3-fluoropyrrolidin-1-yl]pyridin-4-amine], the fold induction at 1 µM under setting [2] lay in the range of 1 to 10. Besides, the fold induction at 10 µM under setting [3] was 10 to 100.

Consider `CCN1CC2CC1CN2c1cc(C)cc(Nc2ncn(-c3cc(F)cc(F)c3)n2)c1` (centres unmarked) [Compound 996, 1-(3,5-difluorophenyl)-N-[3-(5-ethyl-2,5-diazabicyclo[2.2.1]heptan-2-yl)-5-methyl-phenyl]-1,2,4-triazol-3-amine], for which, under setting [4], the fold induction at 1 µM lay in the range of 1 to 10 and the fold induction at 10 µM was no more than 1.

Take `Fc1cc(Nc2ncn(-c3ccc(F)c(F)c3)n2)cc(N2CCN(C3COC3)CC2)c1` [Compound 803, 1-(3,4-difluorophenyl)-N-[3-fluoro-5-[4-(oxetan-3-yl)piperazin-1-yl]phenyl]-1,2,4-triazol-3-amine]: under setting [4], the fold induction at 1 µM was in the range of 10 to 100 and the fold induction at 10 µM is no more than 1.

On to `Cc1cc(Nc2ncn(-c3cc(F)cc(F)c3)n2)cc(C2CCCN(C3CC3)C2)c1` (centres unmarked) [Compound 466, N-[3-(1-cyclopropyl-3-piperidyl)-5-methyl-phenyl]-1-(3,5-difluorophenyl)-1,2,4-triazol-3-amine], for which, under setting [1], the fold induction at 1 µM lay within 100 to 1000 and the fold induction at 10 µM is no more than 1.

With `Cc1cc(Nc2ncn(-c3cc(F)cc(F)c3)n2)cc(O[C@H]2CCN(C3COC3)C2)c1` [Compound 304, 1-(3,5-difluorophenyl)-N-[3-methyl-5-[(3S)-1-(oxetan-3-yl)pyrrolidin-3-yl]oxy-phenyl]-1,2,4-triazol-3-amine], the fold induction at 1 µM under setting [2] is 100 to 1000. Further, under setting [3], the fold induction at 10 µM was no more than 1.

Regarding `CNC(=O)c1cc(Nc2ncn(-c3cc(F)cc(F)c3)n2)nc(N2CCN(C3COC3)CC2)c1` [Compound 664, 2-[[1-(3,5-difluorophenyl)-1,2,4-triazol-3-yl]amino]-N-methyl-6-[4-(oxetan-3-yl)piperazin-1-yl]pyridine-4-carboxamide], under setting [1], the fold induction at 1 µM was in the range of 1 to 10 and the fold induction at 10 µM was 1 to 10.

On to `Cc1cc(Nc2ncn(-c3ccnc(F)c3)n2)cc(N2CCN(C3COC3)CC2)c1` [Compound 40, 1-(2-fluoro-4-pyridyl)-N-[3-methyl-5-[4-(oxetan-3-yl)piperazin-1-yl]phenyl]-1,2,4-triazol-3-amine], for which the fold induction at 1 µM under setting [2] lay in the range of 1000 to 10000. Further, the fold induction at 10 µM under setting [3] fell in the range of 10 to 100.

Take `Cc1cc(Nc2ncn(-c3cc(F)cc(F)c3)n2)cc(N2CCN(C(C)(C)C)CC2)c1` [Compound 709, N-[3-(4-tert-butylpiperazin-1-yl)-5-methyl-phenyl]-1-(3,5-difluorophenyl)-1,2,4-triazol-3-amine]: under setting [1], the fold induction at 1 µM was in the range of 1 to 10 and the fold induction at 10 µM was in the range of 1 to 10.

Turning to `Cc1cc(Nc2ncn(-c3cc(F)cc(F)c3)n2)cc(NC(C)CN2CCOCC2)c1` (centres unmarked) [Compound 931, N3-[1-(3,5-difluorophenyl)-1,2,4-triazol-3-yl]-5-methyl-N1-(1-methyl-2-morpholino-ethyl)benzene-1,3-diamine], under setting [4], the fold induction at 1 µM was 10 to 100 and the fold induction at 10 µM is no more than 1.

In the case of `Cc1cc(Nc2ncn(-c3cccc(Cl)n3)n2)cc(N2CCCC2)c1` [Compound 488, 1-(6-chloro-2-pyridyl)-N-(3-methyl-5-pyrrolidin-1-yl-phenyl)-1,2,4-triazol-3-amine], under setting [1], the fold induction at 1 µM is no more than 1 and the fold induction at 10 µM is no more than 1.

For `CC1CCN(c2cc(Nc3ncn(-c4cc(F)cc(F)c4)n3)cc(C3CC3)n2)CC1` [Compound 244, 2-cyclopropyl-N-[1-(3,5-difluorophenyl)-1,2,4-triazol-3-yl]-6-(4-methyl-1-piperidyl)pyridin-4-amine], the fold induction at 1 µM under setting [2] was in the range of 1 to 10. For the same compound, the fold induction at 10 µM under setting [3] fell in the range of 10 to 100.

As to `Fc1cc(-n2cnc(Nc3cc(C(F)F)cc(N4CCN(C5COC5)CC4)c3)n2)ccn1` [Compound 189, N-[3-(difluoromethyl)-5-[4-(oxetan-3-yl)piperazin-1-yl]phenyl]-1-(2-fluoro-4-pyridyl)-1,2,4-triazol-3-amine], the fold induction at 1 µM under setting [2] was 100 to 1000. In addition, the fold induction at 10 µM under setting [3] was no more than 1.

`Cc1cc(Nc2ncn(-c3ccccc3)n2)cc(C2CCN(C3(C)COC3)CC2)c1` [Compound 294, N-[3-methyl-5-[1-(3-methyloxetan-3-yl)-4-piperidyl]phenyl]-1-phenyl-1,2,4-triazol-3-amine]: under setting [2], the fold induction at 1 µM fell in the range of 1000 to 10000. Further, under setting [3], the fold induction at 10 µM fell in the range of 1000 to 10000.

As for `Cc1cc(Nc2ncn(-c3ccccc3)n2)cc(N2CCN3C(=O)OCC3C2)c1` (centres unmarked) [Compound 227, 7-[3-methyl-5-[(1-phenyl-1,2,4-triazol-3-yl)amino]phenyl]-5,6,8,8a-tetrahydro-1H-oxazolo[3,4-a]pyrazin-3-one], under setting [2], the fold induction at 1 µM lay within 100 to 1000. Moreover, the fold induction at 10 µM under setting [3] lay in the range of 10 to 100.

With `Cc1cc(Nc2ncn(-c3ccccc3)n2)cc(N2CCN(C3CCOCC3)CC2)c1` [Compound 289, N-[3-methyl-5-(4-tetrahydropyran-4-ylpiperazin-1-yl)phenyl]-1-phenyl-1,2,4-triazol-3-amine], under setting [2], the fold induction at 1 µM was in the range of 1000 to 10000. The fold induction at 10 µM under setting [3] lay in the range of 1 to 10.

`Cc1cc(Nc2ncn(-c3cc(F)cc(F)c3)n2)nc(N2CCN(C3CCOC3)CC2)c1` (centres unmarked) [Compound 562, N-[1-(3,5-difluorophenyl)-1,2,4-triazol-3-yl]-4-methyl-6-(4-tetrahydrofuran-3-ylpiperazin-1-yl)pyridin-2-amine]: under setting [1], the fold induction at 1 µM is 1 to 10 and the fold induction at 10 µM was 1 to 10.

`Cc1cc(Nc2ncn(-c3cc(F)cc(F)c3)n2)cc(N2CCN3C(=O)CCC3C2)c1` (centres unmarked) [Compound 561, 2-[3-[[1-(3,5-difluorophenyl)-1,2,4-triazol-3-yl]amino]-5-methyl-phenyl]-1,3,4,7,8,8a-hexahydropyrrolo[1,2-a]pyrazin-6-one]: under setting [1], the fold induction at 1 µM was 100 to 1000 and the fold induction at 10 µM was 10 to 100.

Turning to `CCN1CCCC(Nc2cc(C)cc(Nc3ncn(-c4cc(F)cc(F)c4)n3)c2)C1` (centres unmarked) [Compound 897, N3-[1-(3,5-difluorophenyl)-1,2,4-triazol-3-yl]-N1-(1-ethyl-3-piperidyl)-5-methyl-benzene-1,3-diamine], under setting [4], the fold induction at 1 µM fell in the range of 1 to 10 and the fold induction at 10 µM is no more than 1.

Take `Cc1cc(Nc2ncn(-c3cc(F)cc(F)c3)n2)cc(N2CCNCC2)c1` [Compound 77, 1-(3,5-difluorophenyl)-N-(3-methyl-5-piperazin-1-yl-phenyl)-1,2,4-triazol-3-amine]: the fold induction at 1 µM under setting [2] was 100 to 1000. Moreover, under setting [3], the fold induction at 10 µM is no more than 1.

As for `CCc1cc(Nc2ncn(-c3ccc(C)cc3)n2)cc(N2CCN(C3COC3)CC2)c1` [Compound 31, N-[3-ethyl-5-[4-(oxetan-3-yl)piperazin-1-yl]phenyl]-1-(p-tolyl)-1,2,4-triazol-3-amine], under setting [2], the fold induction at 1 µM was 100 to 1000. For the same compound, the fold induction at 10 µM under setting [3] is 100 to 1000.

For the compound `Cc1cc(Nc2ncn(-c3cc(F)cc(F)c3)n2)cc(N2C[C@H]3C[C@@H]2CN3C)c1` [Compound 459, 1-(3,5-difluorophenyl)-N-[3-methyl-5-[(1R,4R)-5-methyl-2,5-diazabicyclo[2.2.1]heptan-2-yl]phenyl]-1,2,4-triazol-3-amine], under setting [1], the fold induction at 1 µM fell in the range of 10 to 100 and the fold induction at 10 µM was no more than 1.

Take `Cc1cc(Nc2ncn(-c3cc(F)cc(F)c3)n2)cc(N2CCC[C@H]2CN2CCOCC2)c1` (single isomer, unassigned) [Compound 919]: under setting [4], the fold induction at 1 µM lay in the range of 10 to 100 and the fold induction at 10 µM is no more than 1.

Consider `Fc1cc(Nc2ncn(-c3ccccn3)n2)cc(N2CCN(C3COC3)CC2)c1` [Compound 642, N-[3-fluoro-5-[4-(oxetan-3-yl)piperazin-1-yl]phenyl]-1-(2-pyridyl)-1,2,4-triazol-3-amine], for which, under setting [1], the fold induction at 1 µM fell in the range of 1 to 10 and the fold induction at 10 µM was in the range of 10 to 100.

On to `CN1CCN(c2cc(Nc3ncn(-c4ccc(F)c(F)c4)n3)cc(C(F)(F)F)c2)CC1` [Compound 412, 1-(3,4-difluorophenyl)-N-[3-(4-methylpiperazin-1-yl)-5-(trifluoromethyl)phenyl]-1,2,4-triazol-3-amine], for which, under setting [1], the fold induction at 1 µM fell in the range of 1000 to 10000 and the fold induction at 10 µM is no more than 1.

For `COC(=O)c1cc(Nc2ncn(-c3cc(F)cc(F)c3)n2)nc(N2CCOCC2)c1` [Compound 675, methyl 2-[[1-(3,5-difluorophenyl)-1,2,4-triazol-3-yl]amino]-6-morpholino-pyridine-4-carboxylate], under setting [1], the fold induction at 1 µM was 1 to 10 and the fold induction at 10 µM lay in the range of 1 to 10.

For `Cc1cc(Nc2ncn(-c3ccccc3)n2)cc(N2CC3(COC3)C2)c1` [Compound 7, N-[3-methyl-5-(6-oxa-2-azaspiro[3.3]heptan-2-yl)phenyl]-1-phenyl-1,2,4-triazol-3-amine], under setting [2], the fold induction at 1 µM was in the range of 1000 to 10000. Besides, the fold induction at 10 µM under setting [3] fell in the range of 1000 to 10000.

With `Fc1cc(Nc2ncn(-c3ccccc3)n2)cc(C2CCNC2)c1` (centres unmarked) [Compound 452, N-(3-fluoro-5-pyrrolidin-3-yl-phenyl)-1-phenyl-1,2,4-triazol-3-amine], under setting [1], the fold induction at 1 µM lay within 10 to 100 and the fold induction at 10 µM was no more than 1.
